Measured values as given in patent publication US20240269206A1, “AMANITA […] EXTRACTS AND COMPOUNDS AND THEIR […] […] USE” (priority 2021, published 2024).
Read-outs that look alike come from different tables or passages of the source.

Assays:
[1] = tested on: male CD [Crl:CD(SD)] rats; experiment: Conditioned place preference (CPP) study, abuse liability assessment; type: in vivo, rat; conditions: for Conditioned place preference score for CS+ (percentage of time in the 2 conditioning compartments), Mean / Conditioned place preference score for CS+, LSMean (least squares mean): 20 mg/kg oral gavage (positive control)
Experimental: Purpose: A conditioned place preference (CPP) study was conducted in rats to evaluate the abuse potential of exemplary aqueous A. muscaria extract AME-1. The CPP study is a standard behavioral model used for studying the reward and aversive effects of a compound and is designed to determine the reinforcing properties of drugs of abuse using classical Pavlovian conditioning. Accordingly, the CPP paradigm provides for a rapid measurement of the positive reinforcing or aversive properties of a test sample, in this case, AME-1.
Methods: Four treatment groups of 8 male CD® [Crl:CD®(SD)] rats were exposed to unique environmental cues associated with a conditioned stimuli (CS+) or saline (CS−) in a 3-chamber straight alleyway system. Following a habituation phase (Week −1) during which compartment preference was determined for each animal, the conditioning phase (Week 1 and Week 2) was conducted during which compartments 1 and 3 were paired with the test and control articles or saline. Saline (CS−) and test/control articles (CS+, at 800 and 1100 mg/kg of exemplary A. muscaria aqueous extract AME-1 or 20 mg/kg cocaine) were administered via oral gavage at a dose volume of 5 mL/kg. After two sets of conditioning trials during the conditioning phase, each rat was retested for free-choice side preference (Days 5 and 12). Each rat received eight stimulus environmental pairing sessions (e.g., four test article and four saline) and two CPP test sessions (T1, T2). The study design was as follows:
The following parameters and endpoints were evaluated in this study: mortality, clinical signs, body weights, and CPP testing. During CPP testing sessions, the following parameters were assessed: 1) Total time spent in the black and/or white (Compartment 1 and 3) compartments, which were used to calculate the “preference score,” and these values expressed as a percentage of time in the two conditioning compartments; 2) Total number of beam breaks in each conditioning compartment; and 3) Preference score expressed as a percentage of time in the 2 conditioning compartments. Only preference scores for the CS+ expressed as a percentage of time in the 2 conditioning compartments were reported. A CPP was determined when the test subject spent more time in the test sample-paired compartment versus the vehicle-paired compartment. Conversely, a conditioned place aversion (CPA) was determined when the test subject spent more time in the vehicle-paired compartment versus the sample-paired compartment. Therefore, possible outcomes included whether AME-1 causes a dependence, an aversive effect, or no effect. The total time spent in the nonpreferred compartment+total time spent in both conditioning compartments was expressed as a percentage, and used as a measure of “side preference.” Side preference infers a hedonic valence for the environmental cues of the compartment. Initial side preferences/biases (Habituated Score-H) were used to determine which of two compartments would be paired with the targeted interoceptive states. After two CS-UCS pairings, groups were retested for side preference (Test 1-1; Test 2-2). A significant change score from the initial habituation test scores reflected a conditioned place approach (* p<0.05).

[2] = tested on: GABA receptor; conditions: cited from earlier work; for Mechanism of action at the GABA receptor: Brehm et al., Walker et al.
[3] = stomach, liver and brain; cited from earlier work
[4] = tested on: levels of serotonin (5-hydroxytryptamine), noradrenaline and dopamine in the brain; conditions: male rats and mice, cited from earlier work
[5] = after ingestion of Amanita mushrooms; cited from earlier work
[6] = cited from earlier work

COC(=O)[C@H]1[C@@H](OC(=O)c2ccccc2)C[C@@H]2CC[C@H]1N2C [Cocaine]
Conditioned place preference score for CS+ (percentage of time in the 2 conditioning compartments), Mean ([1]; Habituation): 39.593 | Conditioned place preference score for CS+, LSMean (least squares mean) ([1]; Habituation): 39.162 | Conditioned place preference score for CS+ (percentage of time in the 2 conditioning compartments), Mean ([1]; Overall): 49.665 | Conditioned place preference score for CS+, LSMean (least squares mean) ([1]; Overall, different from Groups 1 and 3, p < 0.05): 49.639^a, f | Conditioned place preference score for CS+ (percentage of time in the 2 conditioning compartments), Mean ([1]; Test 1): 61.194 | Conditioned place preference score for CS+, LSMean (least squares mean) ([1]; Test 1): 61.877 | Conditioned place preference score for CS+ (percentage of time in the 2 conditioning compartments), Mean ([1]; Test 2): 48.208 | Conditioned place preference score for CS+, LSMean (least squares mean) ([1]; Test 2): 47.822 | Outcome of CPP testing: conditioned place preference ([1]; 20 mg/kg oral gavage, positive control): did produce a CPP

N[C@H](C(=O)O)c1cc(O)no1 [ibotenic acid, (S)-2-Amino-2-(3-hydroxyisoxazol-5-yl) acetic acid]
Mechanism of action at the GABA receptor [2]: activation of the GABA receptor | Metabolic fate [3]: metabolized by decarboxylation in the stomach, liver, and brain to equal amounts of muscimol | Effect on brain levels of serotonin, noradrenaline and dopamine ([4]; 16 mg/kg intraperitoneally): affect the levels of serotonin (5-hydroxytryptamine), noradrenaline and dopamine in the brain | Time of detection in urine after ingestion [5]: detected within an hour after ingestion

NCc1cc(=O)[nH]o1 [muscimol, 5-(Aminomethyl)-1,2-oxazol-3(2H)-one]
Mechanism of action at the GABA receptor [2]: activation of the GABA receptor | GABA agonist affinity and efficacy ([2]; Worms et al.): GABA agonist of high affinity but of relatively low efficacy | Effect on brain levels of serotonin, noradrenaline and dopamine ([4]; 3 mg/kg intraperitoneally): affect the levels of serotonin (5-hydroxytryptamine), noradrenaline and dopamine in the brain | Amount of the dose injected that crossed to the brain ([6]; IV 8 μmol/kg 3H-muscimol, 150 g male Sprague Dawley rat): approximately 0.02% | Muscimol amount in the brain ([6]; IV 8 μmol/kg 3H-muscimol, male Sprague Dawley rat): approximately 200 pmol/g tissue | Distribution at various brain regions ([6]; IV 8 μmol/kg, male Sprague Dawley rat): highest muscimol concentration being in the substantia nigra, the colliculi and the hypothalamus | Time until blood concentration was below limits of detection ([6]; after intravenous injection, rat): ≤ 180 min | Distribution in the corneum stratum compared to the hypothalamus, hippocampus and cortex ([6]; intracerebroventricular injection 1200 nmol/kg, rat): approximately 2 times | Tolerability (reports of adverse effects or toxicity) ([6]; intravenous injection 8 μmol/kg, rat): well-tolerated | Time of detection in urine after ingestion [5]: detected within an hour after ingestion
